Measured values reported in patent US12122811B2, “BDNF mimetic peptide amphiphiles” (Northwestern University, priority 2018, dated 2024).
Positions of bridges follow the written chain, without caps; N, C: chain ends. Non-standard residues stand in square brackets, D forms with d. Residues, ends and D or L forms follow the SMILES beside them. Chains are numbered I, II in the order given. *: point of attachment. PEG6 = NCCOCCOCCOCCOCCOCCOCCC(=O)O; Palmitoyl = CCCCCCCCCCCCCCCC(=O)*

Key:
[1] = Dynamic light scattering (DLS); format: physicochemical; details: BDNF PA at 100 mol %
Procedure: 2.2.2. Dynamic Light Scattering (DLS). Measurements were performed on a Malvern Zetasizer Nano ZSP light scattering spectrometer. Samples were prepared as previously described. During the sample measurement, the temperature was kept at 25° C. The sample was equilibrated for 30 seconds before each measurement was taken. The duration of each measurement was 10 seconds and the measurement angle was 173° backscatter. The attenuator was determined by the instrument automatically, as was the number of accumulations for each run. Each measurement run was repeated 3 times.

[2] = system: mouse model of spinal cord injury; experiment: Mouse model of spinal cord injury, Basso Mouse Scale hind limb scoring; format: in vivo; details: for hindlimb function: over 12 weeks, vs E2 PA or saline
Source text: The spinal cord injury procedures used follow a standardized protocol to ensure a reproducible injury. Mice were anesthetized and their back is opened to reveal the vertebral column. The vertebral bone at T11 was surgically removed to reveal the spinal cord tissue. The mice were then transferred the impactor machine which is used to inflict a compression injury on the exposed spinal cord. The spinal cord was held in place using stereotactic clamps. The instrument inflicts a force of 70-80 kDynes and dwells in the place of the impact for 60 seconds to simulate a crush injury accident. This injury is quite severe. After each impact was performed, the instrument supplies a graph corresponding to the real force and trajectory of the impactor. This graph is used to compare and ensure that all animals receive an injury of the same nature. After the injury is inflicted, the animals were closed and allowed to rest for 24 hours.
The next day, the animals were re-opened and prepared for the “treatment” surgery. Before beginning the procedure, all animals underwent a behavioral assessment and mice with hind limb movement were discarded from the study. When the animal is re-opened, there was typically a dark, bruised area apparent where the crush injury took place the previous day. This is where the treatment was injected. A Hamilton syringe attached to a glass-pulled needle with a diameter of ˜300 μm was used to puncture the bruised dermis of the tissue and the treatment was injected into the underlying tissue cavity. Treatment types include; saline, and the C16V2A2E2 (E2) non-bioactive PA gel as negative controls, as well as the BDNF PA co-assembled at 20 mol % with the E2 non-bioactive PA gel.
After injection, the animals were closed and returned to cages to recover. Over the next 12 weeks, blinded hind limb behavioral scoring was performed to assess any functional changes (FIG. 21). A standardized “Basso Mouse Scale” was used (Basso et al. J Neurotrauma. 2006 May; 23(5):635-59.; herein incorporated by reference in its entirety). Two blinded researchers were either side of a runway where the mouse was guided to move in a straight line. As the mouse walks, each researcher grades the limb movement. Any discrepancies in evaluation were re-evaluated by a third researcher. The score for the two limbs was averaged and marked as the score for that animal.

[3] = system: cortical neurons; experiment: Whole-cell current-clamp (patch clamp) recordings of neurons on PA gels; format: cell-based, mouse; details: neurons on gels up to one week; relative to E2 Filler PA
Procedure: Patch Clamp. Whole-cell current-clamp recordings were made from visually identified primary cultured neurons using inverted Olympus IX51 microscope equipped with a 40× objective. Recording pipettes were made of glass capillaries using a horizontal Sutter P-1000 puller yielding a 3-5 MΩ resistance pipette when filled with standard intracellular solution containing (in mM): 120 K-MeSO4, 10 KCl, 10 HEPES, 10 Na2-phosphocreatine, 4 Mg-ATP, 0.4 Na3-GTP, pH 7.3; 285-290 mOsm. Gels with neurons were continuously perfused with standard oxygenated aCSF bath solution (in mM): 125 NaCl, 26 NaHCO3, 2.5 KCl, 1.25 NaH2PO4, 1 MgSO4, 25 glucose, 2 CaCl2, pH 7.4 at 32-34° C. Whole-cell current-clamp data was acquired using an […] amplifier (Molecular Devices, USA) and digitized at 10 kHz (filtered at 3 kHz) with the neurons held at −65 mV. Resting membrane potential was measured immediately after breaking into the cell. Input resistance was calculated as the slope of the voltage-current curve using 500 ms current steps from −50 pA to 30 pA at 10 pA steps. There were no differences in resting membrane potentials or input resistance between the three groups. […] AP threshold was calculated where the first derivative of the up phase of the trace equals 5 mV/ms. […] Data was analyzed using MATLAB protocols designed specifically for these experiments.

[4] = system: cortical neurons; experiment: Infiltration and maturation of cortical neurons on 3D PA gel scaffolds; format: cell-based, mouse; details: neurons on gels, one week
Procedure: Gels were made using annealed PAs prepared with methods described herein 1. BDNF native protein or BDNF peptide were incorporated by mixing at 10 nM or 0.5 uM respectively, with E2 Filler PA gel at 1 wt % while it was in its liquid state. Silicon isolators with adhesive (Invitrogen) were placed on PDL coated glass coverslips. 70 μL of PA liquid was pipetted into the circular silicon well and a Transwell insert was placed flush with the top of the well of the silicon insert. This step ensured a flat, even thickness for all gels. Gelling solution comprised of 125 mM NaCl, 3 mM KCl, and 25 mM CaCl2 was pipetted into the Transwell insert and allowed to slowly soak down into the material from the top. The insert prevented the gel from swelling more than the thickness of the silicon isolator. All gels were incubated at 37° C. for 5 min before removing the Transwell insert.
Infiltration Study. Gels were prepared as described in 2.1.2. Gels were then rinsed with media one time before cells were seeded on top at a density of approximately 42,000 cells/well. Cells were cultured for one week in vitro. Half of the gels were analyzed by patch clamp analysis (see section 3.4.9. Other gels were fixed with 4% PFA to perform infiltration studies. Cell were stained for MAP2, TUJ-1 and DAPI using immunocytochemistry methods described previously. Confocal microscopy was used to make z-stack reconstructions of each gel. The MultiMeasure function in the ROI manager of ImageJ was used to measure the depth of pixels for each channel which was then plotted as intensity vs depth in the gel. The average intensity of MAP2 was measured by averaging the mean intensities obtained from maximum intensity projections of z-stacks images of gels.

SMILES: CCCCCCCCCCCCCCCC(=O)N[C@H](C(=O)N[C@H](C(=O)N[C@@H](C)C(=O)N[C@@H](C)C(=O)N[C@@H](CCC(=O)O)C(=O)N[C@@H](CCC(=O)O)C(=O)N[C@@H](CCC(=O)O)C(=O)N[C@@H](CCC(=O)O)C(=O)NCCOCCOCCOCCOCCOCCOCCC(=O)NCCCC[C@@H]1NC(=O)[C@H]2CCCN2C(=O)[C@H](CCCNC(=N)N)NC(=O)[C@H](CCCCN)NC(=O)[C@H](CCCCN)NC1=O)C(C)C)C(C)C [BDNF PA, RKK(aK)(dP)-(PEG6 Spacer)-EEEEAAVV-C16 (SEQ ID NO: 5)] (I: Palmitoyl-VVAAEEEE[PEG6] / II: cyclo(KKKR[dP]); amide I:C-II:1)
- micelle diameter (DLS) [1]: ~12 nm
- final average limb behavioral score (Basso Mouse Scale) ([2]; 12 weeks after injury, BDNF PA co-assembled at 20 mol % with E2 PA gel, injected 24 h after injury): 3.7
- rate of hindlimb improvement ([2]; first three weeks following injury): increased rate of hindlimb improvement
- hindlimb function [2]: increased functional hind limb recovery
- hindlimb function ([2]; listed as BDNF mimetic PA): significant improvement in hindlimb function
- number of action potentials [3]: higher number of action potentials
- distance that neurites infiltrated from the top of the scaffold [4]: 179.7±6.0 μm
- infiltration distance relative to all the other conditions [4]: nearly four-and-a-half times higher
- normalized average of MAP2 intensity [4]: 0.64±0.15
